The target of assay [1] is T1, chimeric receptor containing the EGFR extracellular domain and the HER2 intracellular kinase domain (Homo sapiens, UniProt P04626).
T1 construct: P00533 (Epidermal growth factor receptor)
The experiment in a line: EGFR-HER2 chimeric receptor whole cell kinase assay (E/HER2-3T3). Format: cell-based. As to conditions: Table VI, cellular kinase assay. From the text:
(§1) This example illustrates the ability of the exemplary compounds to inhibit receptor tyrosine kinases, such as HER2 and/or EGFR. The following target cells were used for cellular kinaseassays: NIH3T3 clone C7 (Honegger et al., supra) engineered to over-express human EGF receptor; NIH3T3 cells engineered to over-express a chimeric receptor containing the EGFR extracellular domain and the HER2 intracellular kinase domain; the human mammary carcinoma line BT474 (ATCC HTB2) expressing HER2; and the human glioblastoma line U1242 that expresses PDGFR-β. Growth assays were carried out using human mammary epithelial SKBR3 (ATCC HTB30) cells, SKOV3 (ATCC HTB77) human ovarian cancer cell line, A431 cells, MCF7 human breast carcinoma cells, MCF7 cells overexpress the HER2 kinase (MCF7-HER2), NIH3T3 cells, and NIH3T3 cells overexpressing the HER2 kinase (3T3-HER2).
2. EGFR-HER2 Chimeric Receptor
HER2 kinase activity (EGFR-3T3) in whole cells was measured as described below:
The following protocol was used:
A. Coat ELISA plates (Corning, 96 well, Cat. #25805-96) with 05-101 antibody at 0.5 μg per well in PBS, 100 μl final volume/well, and store overnight at 4° C. Coated plates are good for up to 10 days when stored at 4° C.
B. On day of use, remove coating buffer and replace with 100 μl blocking buffer (5% Carnation Instant Non-Fat Dry Milk in PBS). Incubate the plate, shaking, at room temperature (about 23° C. to 25° C.) for 30 minutes. Just prior to use, remove blocking buffer and wash plate 4 times with TBST buffer.
A. An NIH3T3 cell line overexpressing a chimeric receptor containing the EGFR extracellular domain and extracellular HER2 kinase domain can be used for this assay.
A. Choose dishes having 80-90% confluence for the experiment. Trypsinize cells and stop reaction by adding 10% fetal bovine serum. Suspend cells in DMEM medium (10% CS DMEM medium) and centrifuge once at 1500 rpm, at room temperature for 5 minutes.
B. Resuspend cells in seeding medium (DMEM, 0.5% bovine serum), and count the cells using trypan blue. Viability above 90% is acceptable. Seed cells in DMEM medium (0.5% bovine serum) at a density of 10,000 cells per well, 100 μl per well, in a 96 well microtiter plate. Incubate seeded cells in 5% CO2 at 37° C. for about 40 hours.
A. Check seeded cells for contamination using an inverted microscope. Dilute drug stock (10 mg/ml in DMSO) 1:10 in DMEM medium, then transfer 5 μl to a test well for a final drug dilution of 1:200 and a final DMSO concentration of 1%. Control wells receive DMSO alone. Incubate in 5% CO2 at 37° C. for two hours.
A. Prepare EGF ligand: dilute stock EGF in DMEM so that upon transfer of 10 μl dilute EGF (1:12 dilution), 100 nM final concentration is attained.
B. Prepare fresh HNTG* sufficient for 100 μl per well; and place on ice.
C. After 120 minutes incubation with drug, add prepared EGF ligand to cells, 10 μl per well, to a final concentration of 100 nM. Control wells receive DMEM alone. Incubate, shaking, at room temperature, for 5 minutes.
D. Remove drug, EGF, and DMEM. Wash cells twice with PBS. Transfer HNTG* to cells, 100 μl per well. Place on ice for 5 minutes. Meanwhile, remove blocking buffer from other ELISA plate and wash with TBST as described above.
E. With a pipette tip securely fitted to a micropipettor, scrape cells from plate and homogenize cell material by repeatedly aspirating and dispensing the HNTG* lysis buffer. Transfer lysate to a coated, blocked, and washed ELISA plate. Incubate shaking at room temperature for one hour.
F. Remove lysate and wash 4 times with TBST. Transfer freshly diluted anti-Ptyr antibody to ELISA plate at 100 μl per well. Incubate shaking at room temperature for 30 minutes in the presence of the anti-Ptyr antiserum (1:3000 dilution in TBST).
G. Remove the anti-Ptyr antibody and wash 4 times with TBST. Transfer the freshly diluted TAGO anti-rabbit IgG antibody to the ELISA plate at 100 μl per well. […]

Assay [2] deals with MCF7 human breast carcinoma cells. The experiment in a line: MCF-7 SRB growth assay. Format: cell-based. As to conditions: Table VI, 10% FBS, four days.
Source text: as §1
6. MCF-7 SRB Growth Assay
(§2) MCF-7 cells are seeded at 2000 cells/ well in a 96-well flat bottom plate in normal growth media, which was 10% FBS/RPMI supplemented with 2 mM Glutamine. The plate of cells is incubated for about 24 hours at 37° C. after which it receives an equal volume of compound dilution per well making the total volume per well 200 μl. The compound is prepared at 2 times the desired highest final concentration and serially diluted in the normal growth media in a 96-well round bottom plate and then transferred to plate of cells. DMSO serves as the vector control up to 0.2% as final concentration. The cells are then incubated at 37° C. in a humidified 5% CO2 incubator.
(§3) Four days following dosing of compound, the media is discarded and 200 μl/well of ice-cold 10% TCA (Trichloroacetic Acid) is added to fix cells. After 60 minutes at 4° C., the TCA is discarded and the plate is rinsed 5 times with water. The plate is then air-dried and 100 μl/well of 0.4% SRB (Sulforhodamine B from Sigma) in 1% Acetic Acid is added to stain cells for 10 minutes at room temperature. The SRB is discarded and the plate is rinsed 5 times with 1% Acetic Acid. After the plate is completely dried, 100 μl/well of 10 mM Tris-base is added to solubilize the dye. After 5 to 10 minutes, the plate is read on a Dynatech ELISA Plate Reader at dual wavelengths at 570 nm and 630 nm.

The subject of assay [3] is MCF7 cells overexpress the HER2 kinase (MCF7-HER2). Briefly: MCF-7/HER-2 SRB growth assay. Format: cell-based, human. The note with it: Table VI, 0.5% FBS, four days.
Source text: as §1, §2, §3
8. MCF-7/HER-2 SRB Growth Assay
The protocol is basically the same as that above (for the MCF-7 Growth Assay) except that immediately before the compound is added, the normal growth media is removed and 0.5% FBS/RPMI supplemented with 2 mM Glutamine is added onto the cells. The compound is also prepared in this 0.5% serum media. The plate of cells is incubated for four days and developed as usual.
A general note: Sulforhodamine B stains cellular protein and so reports cell mass.

A further assay concerns the target T2, PDGFR-β (Homo sapiens, UniProt P09619).
T2 construct: the human glioblastoma line U1242 that expresses PDGFR-β; endogenous in cells; host or cells: U1242 human glioblastoma cells
Briefly: PDGFR-β cellular kinase assay (U1242 cells). The note with it: Table V, read-out: Estimated IC50 Cellular Kinase Assays PDGFR-β. Format: cell-based.
Source text: as §1

T2 sequence (P09619 33-1106): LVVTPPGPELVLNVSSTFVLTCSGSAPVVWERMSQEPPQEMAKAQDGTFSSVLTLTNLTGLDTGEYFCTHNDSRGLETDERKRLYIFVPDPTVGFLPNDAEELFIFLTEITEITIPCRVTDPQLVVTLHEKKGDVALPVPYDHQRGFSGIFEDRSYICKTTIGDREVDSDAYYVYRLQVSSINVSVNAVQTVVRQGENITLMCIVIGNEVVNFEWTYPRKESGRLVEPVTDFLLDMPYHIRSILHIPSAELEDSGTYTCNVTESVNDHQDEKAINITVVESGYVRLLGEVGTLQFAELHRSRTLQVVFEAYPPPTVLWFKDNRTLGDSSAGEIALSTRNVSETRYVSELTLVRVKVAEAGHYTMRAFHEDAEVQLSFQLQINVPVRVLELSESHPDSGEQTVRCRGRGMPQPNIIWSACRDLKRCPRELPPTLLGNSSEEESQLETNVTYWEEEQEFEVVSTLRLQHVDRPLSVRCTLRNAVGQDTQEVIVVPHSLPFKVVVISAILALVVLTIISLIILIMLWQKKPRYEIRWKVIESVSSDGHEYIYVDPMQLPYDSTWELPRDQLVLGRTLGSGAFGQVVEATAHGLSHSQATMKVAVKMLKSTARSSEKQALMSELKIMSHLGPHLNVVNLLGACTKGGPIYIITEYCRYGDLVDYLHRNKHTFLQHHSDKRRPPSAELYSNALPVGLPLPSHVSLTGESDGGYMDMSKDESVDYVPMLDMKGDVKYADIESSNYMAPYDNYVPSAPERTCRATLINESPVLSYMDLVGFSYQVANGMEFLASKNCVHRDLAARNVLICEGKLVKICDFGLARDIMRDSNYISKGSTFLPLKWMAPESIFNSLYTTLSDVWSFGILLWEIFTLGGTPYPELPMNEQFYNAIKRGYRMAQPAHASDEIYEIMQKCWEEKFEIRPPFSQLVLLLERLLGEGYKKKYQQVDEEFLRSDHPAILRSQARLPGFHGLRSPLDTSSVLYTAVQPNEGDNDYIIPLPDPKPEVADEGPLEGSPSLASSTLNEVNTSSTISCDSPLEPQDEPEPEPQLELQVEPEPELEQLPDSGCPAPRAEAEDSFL

Broadly, the IC50 is the concentration needed to halve the response being measured. `CC(C)(C)c1cc(/C=C(\C#N)C(N)=S)cc(C(C)(C)C)c1O` [Compound M11]: the IC50 in assay [1] was above 100 µM; in assay [2] (Homo sapiens, MCF7, 96 h) it was 4 µM; in assay [3] (Homo sapiens, MCF7, 96 h) it was 0.2 µM; on PDGFR-β it was above 100 µM.

On to `N#C/C(=C\c1ccc(O)c(O)c1)C(=S)NCc1ccccc1` [Compound M13], for which the IC50 in assay [1] is above 100 µM; at PDGFR-β, 60 µM.

For `N#C/C(=C\c1ccc(O)c(O)c1)C(=O)Nc1cccc(C(F)(F)F)c1` [Compound M15], the IC50 in assay [1] was above 100 µM; in assay [2] (Homo sapiens, MCF7, 96 h) it was 15 µM; in assay [3] (Homo sapiens, MCF7, 96 h), 6 µM.

For the compound `N#C/C(=C\c1cc(O)c(O)c(I)c1)C(=O)NCCCc1ccccc1` [Compound M16], the IC50 at PDGFR-β was 35 µM.

For `CC(C)(C)c1cc(/C=C(\C#N)C(=O)NCCCc2ccccc2)cc(C(C)(C)C)c1O` [Compound M20, (E)-3-(3,5-di-t-Butyl-4-hydroxyphenyl)-2-[(3-phenyl-n-propyl)aminocarbonyl]acrylonitrile], the half-inhibitory concentration (IC50) in assay [2] (Homo sapiens, MCF7, 96 h) turned out to be 6 µM; in assay [3] (Homo sapiens, MCF7, 96 h), 0.6 µM.

As for `CC(C)c1cc(/C=C(\C#N)C(=O)NCCCc2ccccc2)cc(C(C)C)c1O` [Compound M21, (E)-3-(3,5-Diisopropyl-4-hydroxyphenyl)-2-[(3-phenyl-n-propyl)aminocarbonyl]acrylonitrile], the IC50 in assay [1] was above 100 µM; in assay [2] (Homo sapiens, MCF7, 96 h), 14 µM; in assay [3] (Homo sapiens, MCF7, 96 h) it was 2 µM.

`CC(C)c1cc(C=C(C#N)C(N)=C(C#N)C#N)cc(C(C)C)c1O` [Compound M22, (E)-2-(1-Amino-2,2-dicyanoethenyl-3-(3,5-diisopropyl-4-hydroxyphenyl)acrylonitrile)]: the IC50 in assay [1] was above 100 µM; in assay [2] (Homo sapiens, MCF7, 96 h) it was 44 µM; in assay [3] (Homo sapiens, MCF7, 96 h) it was 9 µM.

In the case of `CC(C)c1cc(/C=C(\C#N)C(=S)NCCCc2ccccc2)cc(C(C)C)c1O` [Compound M24, (E)-3-(3,5-Diisopropyl-4-hyrdroxyphenyl)-2-[(3-phenyl-n-propyl)aminothiocarbonyl]acrylonitrile], the concentration for half-maximal inhibition (IC50) is above 100 µM in assay [1]; 8 µM in assay [2] (Homo sapiens, MCF7, 96 h); 1 µM in assay [3] (Homo sapiens, MCF7, 96 h).

In assay [1], `CC(C)c1cc(/C=C(\C#N)S(=O)(=O)c2ccccn2)cc(C(C)C)c1O` [Compound M26] displayed a concentration for half-maximal inhibition (IC50) above 100 µM.

Take `CC(C)c1cc(/C=C(\C#N)S(=O)(=O)CC#N)cc(C(C)C)c1O` [Compound M27]: the half-inhibitory concentration (IC50) in assay [1] is above 100 µM; in assay [2] (Homo sapiens, MCF7, 96 h), 33 µM; in assay [3] (Homo sapiens, MCF7, 96 h) it was 6 µM.

On to `CC(C)c1cc(/C=C(\C#N)S(=O)(=O)/C(C#N)=C/c2cc(C(C)C)c(O)c(C(C)C)c2)cc(C(C)C)c1O` [Compound M29], for which the 50% inhibitory concentration (IC50) in assay [1] was above 100 µM; in assay [2] (Homo sapiens, MCF7, 96 h) it was 12 µM; in assay [3] (Homo sapiens, MCF7, 96 h), 2 µM.

As to `CC(C)c1cc(/C=C(\C#N)S(=O)(=O)c2ccccc2)cc(C(C)C)c1O` [Compound M30], the IC50 was determined as 18.3 µM in assay [1]; 9 µM in assay [2] (Homo sapiens, MCF7, 96 h); 2 µM in assay [3] (Homo sapiens, MCF7, 96 h).

As to `Cc1cc(/C=C(\C#N)S(=O)(=O)c2ccccc2)cc(C)c1O` [Compound M31], the IC50 in assay [1] was above 100 µM.

Regarding `Cc1cc(/C=C(\C#N)S(=O)(=O)c2ccccn2)cc(C)c1O` [Compound M32], the IC50 in assay [1] was above 100 µM; in assay [3] (Homo sapiens, MCF7, 96 h), above 50 µM.

On to `CC(C)(C)c1cc(/C=C(\C#N)S(=O)(=O)c2ccccc2)cc(C(C)(C)C)c1O` [Compound M33, (E)-3-(3,5-di-t-Butyl-4-hydroxyphenyl)-2-(phenylsulfonyl)acrylonitrile], for which the IC50 in assay [1] is above 100 µM; in assay [2] (Homo sapiens, MCF7, 96 h) it was 1 µM; in assay [3] (Homo sapiens, MCF7, 96 h), 0.05 µM.

Regarding `CC(C)(C)c1cc(/C=C(\C#N)S(=O)(=O)c2ccccn2)cc(C(C)(C)C)c1O` [Compound M34, (E)-3-(3,5-di-t-Butyl-4-hydroxyphenyl)-2-[(pyrid-2-yl)sulfonyl]acrylonitrile], the half-maximal inhibitory concentration (IC50) was above 100 µM in assay [1]; 2 µM in assay [2] (Homo sapiens, MCF7, 96 h); 0.06 µM in assay [3] (Homo sapiens, MCF7, 96 h).

For the compound `CC(C)(C)c1cc(/C=C(\C#N)C(=O)Nc2ccc(C(F)(F)F)cc2)cc(C(C)(C)C)c1O` [Compound M35, (E)-3-(3,5-di-t-Butyl-4-hydroxyphenyl)-2-[(4-trifluoromethyl)phenylaminocarbonyl]acrylonitrile], the IC50 was above 100 µM in assay [1]; 0.3 µM in assay [2] (Homo sapiens, MCF7, 96 h); 0.09 µM in assay [3] (Homo sapiens, MCF7, 96 h).

On to `CC(C)(C)c1cc(/C=C(\C#N)S(=O)(=O)CC#N)cc(C(C)(C)C)c1O` [Compound M36, (E)-3-(3,5-di-t-Butyl-4-hydroxyphenyl)-2-(cyanomethylsulfonyl)acrylonitrile], for which the 50% inhibitory concentration (IC50) in assay [1] was above 100 µM; in assay [2] (Homo sapiens, MCF7, 96 h), 8 µM; in assay [3] (Homo sapiens, MCF7, 96 h), 2 µM.

On to “(E,E)-2-[[-Cyano-2-(3,5-diisopropyl-4-hydroxyphenyl)ethenyl]sulfonyl]-3-(3,5-di-t-butyl-4-hydroxyphenyl)acrylonitrile [Compound M37]”, for which the concentration for half-maximal inhibition (IC50) in assay [1] was above 100 µM; in assay [2], 3 µM; in assay [3] it was 1 µM.

Values taken from patent publication US6596878B2, “Methods and compositions for inhibiting cell proliferative disorders” (Yissum Research & Development Company of the Hebrew …, priority 1994, dated 2003).
